Like-named read-outs stand apart in the source and are kept apart here.
Test system: HL-60(TB)
Assay type: cell-based
Details: 2 days

## arsenic trioxide
  TGI: 0.0103 ng/mL
log10 conc −4.9
  Percent Growth: −9%
log10 conc −5.9
  Percent Growth: 90%
log10 conc −6.9
  Percent Growth: 102%
log10 conc −7.9
  Percent Growth: 92%
log10 conc −8.9
  Percent Growth: 101%
